The values that follow come from ChEMBL document CHEMBL1201862, “PubChem BioAssay data set” (2004).

SMILES strings stand for the structures.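 Compound exposure: 48 hours, 5 concentrations, 96-well plates. GI50 marks 50% less growth.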 Calls of active or inactive are those of the source. No stated cut-off is given here; in the data, active = GI50 up to about 1.1 µM and inactive = higher.

Some test systems named below: MOLT-4; 786-0; OVCAR-3; CAKI-1; UACC-257; A498; SK-OV-3; EKVX; HCT-116; OVCAR-4; SK-MEL-5; NCI-H226; SK-MEL-2; SK-MEL-28; TK-10; ACHN; MCF7.
Test in all cases: NCI tumour cell line growth inhibition, 48 h

As to `COC1=C(N)C(=O)c2nc(C)ccc2C1=O`, the GI50 with MOLT-4 was 5.85 µM (inactive); in the assay on 786-0, 1.98 µM (inactive); in the assay with OVCAR-3, 2.02 µM (inactive); in the assay on CAKI-1 it was 8.3 µM (inactive); with UACC-257, 1.47 µM (inactive); in the assay on A498, 1.89 µM (inactive). Moreover, the GI50 is 8.04 µM (inactive) with SK-OV-3; 2.77 µM (inactive) with EKVX; 1.94 µM (inactive) in the assay with HCT-116; 1.89 µM (inactive) in the assay on OVCAR-4; 1.7 µM (inactive) in the assay with SK-MEL-5; 1.04 µM (active) in the assay on NCI-H226. Further, the GI50 in the assay on SK-MEL-2 is 1.74 µM (inactive); with SK-MEL-28, 1.82 µM (inactive); with TK-10, 8.2 µM (inactive); in the assay on ACHN it was 1.77 µM (inactive).

Regarding `CN(C)CCNC(=O)c1cccc2ccc(-c3ccc(Br)cc3)nc12`, the GI50 in the assay on MOLT-4 is 0.333 µM (active); in the assay on OVCAR-3 it was 3.27 µM (inactive); in the assay on CAKI-1 it was 1.3 µM (inactive); in the assay on MCF7 it was 2.92 µM (inactive); with UACC-257 it was 2.8 µM (inactive); in the assay with A498, 1.99 µM (inactive). For the same compound, the GI50 in the assay with SK-OV-3 was 2.82 µM (inactive); in the assay on EKVX it was 2.61 µM (inactive); in the assay on HCT-116 it was 1.23 µM (inactive); in the assay with OVCAR-4, 2.76 µM (inactive); with SK-MEL-5 it was 1.46 µM (inactive); with NCI-H226, 1.89 µM (inactive). The results for the GI50 in the assay on SK-MEL-2 and with SK-MEL-28 were 3.09 µM (inactive) and 3.76 µM (inactive), respectively.

On to `COc1ccc(C2COc3c(ccc(O)c3C)C2)cc1OC` (centres undefined), for which the GI50 in the assay with MOLT-4 is 29.2 µM (inactive); in the assay with OVCAR-3 it was 70.1 µM (inactive); in the assay with CAKI-1, 112 µM (inactive); in the assay on MCF7, 81.7 µM (inactive); with UACC-257, 149 µM (inactive); with A498, 11.2 µM (inactive). In addition, the GI50 with SK-OV-3 is > 187 µM (inactive); in the assay on EKVX, 136 µM (inactive); with HCT-116, 48.3 µM (inactive); in the assay with OVCAR-4, 89.3 µM (inactive); in the assay on SK-MEL-5, 11.7 µM (inactive); in the assay on NCI-H226 it was 57.5 µM (inactive). Moreover, the GI50 with SK-MEL-2 is 69.7 µM (inactive); with SK-MEL-28, 121 µM (inactive).

Consider `CCOc1ccc(NC(=O)C(=O)CC(=O)c2c[n+]([O-])c3cc(C)c(C)cc3[n+]2[O-])cc1`, for which the GI50 in the assay on MOLT-4, in the assay on 786-0, in the assay on OVCAR-3, in the assay on CAKI-1, in the assay with UACC-257 and in the assay on A498 was > 100 µM (inactive) throughout. The GI50 was > 100 µM (inactive) with SK-OV-3; 90.8 µM (inactive) in the assay on EKVX; > 100 µM (inactive) with HCT-116; > 100 µM (inactive) in the assay on OVCAR-4; > 100 µM (inactive) in the assay on SK-MEL-5; > 100 µM (inactive) in the assay with NCI-H226. Also, the GI50 in the assay on SK-MEL-2, with SK-MEL-28, in the assay on TK-10 and with ACHN was > 100 µM (inactive) in each case.

Consider `CC(=O)OCC1OC(NC(=O)N(CCCl)N=O)C(OC(C)=O)C(OC(C)=O)C1OC(C)=O` (centres undefined), for which the GI50 with MOLT-4 was > 31.6 µM (inactive); with OVCAR-3 it was > 100 µM (inactive); with CAKI-1, > 86.7 µM (inactive); with MCF7, > 100 µM (inactive); with UACC-257, > 100 µM (inactive); in the assay with A498, > 100 µM (inactive). Further, the GI50 is > 100 µM (inactive) with SK-OV-3; 54.8 µM (inactive) in the assay with EKVX; > 100 µM (inactive) with HCT-116; > 100 µM (inactive) with OVCAR-4; > 31.6 µM (inactive) with SK-MEL-5; 3.86 µM (inactive) with NCI-H226. The GI50 in the assay with SK-MEL-2 and in the assay on SK-MEL-28 was > 100 µM (inactive) throughout.
